Laboratory results: PubChem BioAssay AID1117337 (Cheminformatics & Chemogenomics Research Group (CCRG), …, 2015)
The source made the active and inactive calls. How the calls were made is not given here.

Each molecule was assayed on ADSC/ECFC co-culture, VEGF-stimulated, CD31 tube area (assay: inhibition of endothelial tube formation, dose response, imaging, VEGF stimulation, CD31 staining, tube area, IC50 (AID 1117337)).

Row | Structure (SMILES) | IC50
1 | COc1ccc(CCN2CCC(Nc3nc4ccccc4n3Cc3ccc(F)cc3)CC2)cc1 | > 10 µM (inactive)
2 | C[C@]12CC[C@@H]3c4ccc(O)cc4CC[C@H]3[C@@H]1CC[C@@H]2OC(=O)CCC1CCCC1 | 6.37 µM (inactive)
3 | CCCCCCCCCCCCCCCCCCCCCC(=O)Nc1ccn([C@@H]2O[C@H](CO)[C@@H](O)[C@H]2O)c(=O)n1 | > 10 µM (inactive)
4 | O=C(Nc1ccc(Br)cc1)c1cc(Br)c(Br)s1 | > 10 µM (inactive)
5 | COC(=O)C1=C(C)NC(C)=C(C(=O)OCCN2CCN(C(c3ccccc3)c3ccccc3)CC2)C1c1cccc([N+](=O)[O-])c1 (stereo unspecified) | > 10 µM (inactive)
6 | O=[N+]([O-])c1cc(I)c(O)c(I)c1 | > 10 µM (inactive)
7 | Oc1c(Cl)cc(Cl)c2cccnc12 | 2 µM
8 | CCCCCN=C(N)N/N=C/c1c[nH]c2ccc(OC)cc12 | 3.13 µM
9 | Cc1onc(-c2c(Cl)cccc2Cl)c1C(=O)Cl | > 10 µM (inactive)
10 | C#C[C@]1(OC(C)=O)CC[C@H]2[C@@H]3CCC4=C/C(=N/O)CC[C@@H]4[C@H]3CC[C@@]21CC | > 10 µM (inactive)
11 | COC(=O)C1=C(C)NC(C)=C(C(=O)OC(C)(C)CN(C)CCC(c2ccccc2)c2ccccc2)C1c1cccc([N+](=O)[O-])c1 (stereo unspecified) | > 10 µM (inactive)
12 | C[C@@]12C(=O)OC(=O)[C@]1(C)C1CCC2O1 | 1.23 µM
13 | CCCCC(CC)CN=C(N)NC(N)=NCCCCCCN=C(N)NC(N)=NCC(CC)CCCC (stereo unspecified) | 0.408 µM
14 | O=C1CC(c2ccc(Cl)cc2)CC(=O)N1 | > 10 µM (inactive)
15 | O=c1oc2c(O)c(O)cc3c(=O)oc4c(O)c(O)cc1c4c23 | > 10 µM (inactive)
16 | CCC1=C[C@@H]2CN(C1)Cc1c([nH]c3ccccc13)[C@@](C(=O)OC)(c1cc3c(cc1OC)N(C)[C@H]1[C@@](O)(C(=O)OC)[C@H](OC(C)=O)[C@]4(CC)C=CCN5CC[C@]31[C@@H]54)C2 | 0.0055 µM
17 | C/C(=C(/OCCOc1ccc(Cl)cc1)c1ccc(Cl)cc1Cl)n1ccnc1 | 5.84 µM (inactive)
18 | O=C(O)c1ccc(-n2nc(-c3ccccc3O)nc2-c2ccccc2O)cc1 | 2.09 µM

Row | Structure (SMILES) | IC50
19 | C[C@@H](O[C@H]1OCCN(Cc2n[nH]c(=O)[nH]2)[C@H]1c1ccc(F)cc1)c1cc(C(F)(F)F)cc(C(F)(F)F)c1 | 6.89 µM (inactive)
20 | Oc1c(I)cc(Cl)c2cccnc12 | > 10 µM (inactive)
21 | COCCOC(=O)C1=C(C)NC(C)=C(C(=O)OC/C=C/c2ccccc2)C1c1cccc([N+](=O)[O-])c1 (stereo unspecified) | 6.42 µM (inactive)
22 | CC(COc1ccccc1)NN (stereo unspecified) | > 10 µM (inactive)
23 | CCCSS/C(CCO)=C(\C)N(C=O)Cc1cnc(C)nc1N | > 10 µM (inactive)
24 | COC1=C(OC)C(=O)C(CCCCCCCCCCO)=C(C)C1=O | > 10 µM (inactive)
25 | CCOC(=O)C=C(C)C=CC[C@@H](C)CCCC(C)C | > 10 µM (inactive)
26 | COc1ccc(/C=C/C(=O)c2ccc(OC)cc2OC)cc1 | 6.66 µM (inactive)
27 | COc1ccccc1OCCNCC(O)COc1cccc2[nH]c3ccccc3c12 (stereo unspecified) | > 10 µM (inactive)
28 | CN[C@@H]1C[C@@H](c2ccc(Cl)c(Cl)c2)c2ccccc21 | > 10 µM (inactive)
29 | CCCCCCOC(=O)c1cccnc1 | > 10 µM (inactive)
30 | CCCCCCCCCCCCNCCNCCNCC(=O)O | 6.04 µM (inactive)
31 | CCOC(=O)c1ccccc1C(=O)OCC | > 10 µM (inactive)
32 | C#C[C@]1(O)CC[C@H]2[C@@H]3CCc4cc(O)ccc4[C@H]3CC[C@@]21C | > 10 µM (inactive)
33 | Clc1ccccc1C(c1ccccc1)(c1ccccc1)n1ccnc1 | 3.04 µM
34 | CC(=O)O[C@H]1C[C@H](O[C@H]2[C@@H](O)C[C@H](O[C@@H]3[C@@H](O)C[C@H](O[C@H]4CC[C@@]5(C)[C@H](CC[C@@H]6[C@H]5C[C@@H](O)[C@]5(C)[C@@H](C7=CC(=O)OC7)CC[C@]65O)C4)O[C@@H]3C)O[C@@H]2C)O[C@H](C)[C@H]1O[C@@H]1O[C@H](CO)[C@@H](O)[C@H](O)[C@@H]1O | 0.0702 µM
35 | O=c1[nH]c(=O)n([C@H]2C[C@H](O)[C@@H](CO)O2)cc1F | 0.0216 µM
36 | O=NN(CCCl)C(=O)NC1CCCCC1 | > 10 µM (inactive)
